According to patent EP0326331B1, “Substituted quinolines and cinnolines” (Dow AgroSciences LLC, priority 1988, dated 1989):
Read-outs that look alike come from different tables or passages of the source.

How the values were obtained:
Format in all cases: in vivo
[1] = system: Pseudoperonospora cubensis (downy mildew); experiment: Test 1 greenhouse foliar spray screen, downy mildew on squash; settings: for pest or weed control at 400 ppm: Pseudoperonospora cubensis, foliar, Test 1, foliar spray on squash, disease control rating at 400 ppm / 100 ppm, read-out: DOWN MDEW; for activity against downy mildew: summary statement in the description
[2] = system: Twospotted spider mites (Tetranychus urticae Koch); experiment: Mite/insect screen, SM; settings: for mortality at 200 ppm / mortality at 400 ppm: Tetranychus urticae, foliar, read-out: SM RESULTS %; for activity as miticides: summary statement in the description
Method in brief: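 Read-out: percent mortality after standard exposure periods. Test solutions were water dilutions of compound dissolved in acetone/alcohol (50:50) with emulsifier blends; leaves were sprayed to runoff on both surfaces and air-dried for one hour before exposure.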

[3] = system: Venturia inaequalis (apple scab); experiment: Test 1 greenhouse foliar spray screen, apple scab on apple seedling; settings: Venturia inaequalis; Test 1, foliar spray on apple seedling; disease control rating at 400 ppm / 100 ppm; read-out: APPL SCAB
corn rootworm = experiment: Mite/insect screen, CRW; settings: read-out: CRW RESULTS %
Method in brief: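 Stock in acetone:alcohol 1:1 + TOXIMUL R 23 g/L + TOXIMUL S 13 g/L; diluted with water to indicated concentrations; mortality (%) after standard exposure.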

[4] = system: southern armyworm (Spodopetra eridania Cramer); experiment: Mite/insect screen, SAW; settings: Spodoptera eridania, foliar, read-out: SAW RESULTS %
Method in brief: (§1)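 First, each compound was dissolved in an emulsifier-containing acetone/alcohol mixture and diluted with water. Next, leaves were sprayed until runoff and left to dry for an hour. For southern armyworm, two excised uninfested leaves went into a Petri dish with larvae; percent mortality followed standard exposure periods.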

[5] = system: Puccinia recondita tritici (leaf rust); experiment: Test 1 greenhouse foliar spray screen, leaf rust on wheat; settings: Puccinia recondita, foliar, Test 1, foliar spray on wheat; disease control rating at 400 ppm / 100 ppm
[6] = system: Cercospora beticola (leaf spot); experiment: Test 1 greenhouse foliar spray screen, leaf spot on sugar beet; settings: Cercospora beticola; Test 1, foliar spray on sugar beet; disease control rating at 400 ppm / 100 ppm
[7] = system: Erysiphe graminis tritici (powdery mildew); experiment: Test 1 greenhouse foliar spray screen, powdery mildew on wheat; settings: Blumeria graminis, foliar, Test 1, foliar spray on wheat; disease control rating at 400 ppm / 100 ppm; read-out: POWD MDEW
[8] = system: Septoria tritici (leaf blotch); experiment: Test 1 greenhouse foliar spray screen, leaf blotch on wheat; settings: Zymoseptoria tritici; Test 1, foliar spray on wheat; disease control rating at 400 ppm / 100 ppm; read-out: LEAF BLOT
[9] = system: Botrytis cinerea (gray mold); experiment: Test 1 greenhouse foliar spray screen, gray mold on grape berries; settings: Botrytis cinerea, foliar; Test 1, spray on grape berries; disease control rating at 400 ppm / 100 ppm
[10] = system: melon aphids (Aphis gossypii Glover); experiment: Mite/insect screen, MA; settings: Aphis gossypii, foliar, read-out: MA RESULTS %
Method in brief: as §1

[11] = system: Pyricularia oryzae (rice blast); experiment: whole plant or invertebrate; settings: for pest or weed control at 400 ppm: Pyricularia oryzae, foliar, read-out: RICE BLAST, Test 1, foliar spray on rice, disease control rating at 400 ppm / 100 ppm
[12] = percent mortality, rate 200 ppm, foliar spray on squash
[13] = percent mortality, rate 400 ppm, foliar spray on squash
[14] = percent mortality, CRW rate 12.00 ppm
[15] = percent mortality, CRW rate 24.00 ppm

C1=C(CCNc2ccc3nccc(NCCC4=CCCCC4)c3c2)CCCC1 [Example 192, N,N'-bis[2-(1-cyclohexen-yl)ethyl]-4,6-quinolinediamine]
0%: mortality at 200 ppm [2, 12] | mortality at 400 ppm [2, 13] | mortality at 12 ppm (corn rootworm; [14]) | mortality at 24 ppm (corn rootworm; [15]) | mortality at 200 ppm [4, 12] | mortality at 400 ppm [4, 13] | mortality at 200 ppm [10, 12] | mortality at 400 ppm [10, 13]
0 to 19%: pest or weed control at 400 ppm [3] | pest or weed control at 400 ppm [6] | pest or weed control at 400 ppm [7] | pest or weed control at 400 ppm [9] | pest or weed control at 400 ppm [11]
90 to 100%: pest or weed control at 400 ppm [1] | pest or weed control at 400 ppm [5]
20 to 89%: pest or weed control at 400 ppm [8]

Fc1cccc2c(OCCc3cccc(Cl)c3)ccnc12 [Example 201, 4-[2-(3-chlorophenyl)ethoxy]-8-fluoroquinoline]
100%: mortality at 200 ppm [10, 12] | mortality at 400 ppm [10, 13]
20 to 89%: pest or weed control at 400 ppm [3] | pest or weed control at 400 ppm [11]
90 to 100%: pest or weed control at 400 ppm [1] | pest or weed control at 400 ppm [5] | pest or weed control at 400 ppm [6] | pest or weed control at 400 ppm [7] | pest or weed control at 400 ppm [8]
80%: mortality at 200 ppm [2, 12] | mortality at 400 ppm [2, 13]
0 to 19%: pest or weed control at 400 ppm [9]
0%: mortality at 12 ppm (corn rootworm; [14]) | mortality at 24 ppm (corn rootworm; [15]) | mortality at 200 ppm [4, 12] | mortality at 400 ppm [4, 13]
particularly excellent activity: activity against downy mildew [1] | activity as miticides [2]

Clc1ccc2c(OCCc3ccccc3)ccnc2c1 [Example 202, 7-chloro-4-(2-phenylethoxy)quinoline]
0 to 19%: pest or weed control at 400 ppm [3] | pest or weed control at 400 ppm [9]
20 to 89%: pest or weed control at 400 ppm [6] | pest or weed control at 400 ppm [8] | pest or weed control at 400 ppm [11]
0%: mortality at 200 ppm [2, 12] | mortality at 400 ppm [2, 13] | mortality at 12 ppm (corn rootworm; [14]) | mortality at 24 ppm (corn rootworm; [15]) | mortality at 200 ppm [4, 12] | mortality at 400 ppm [4, 13] | mortality at 200 ppm [10, 12] | mortality at 400 ppm [10, 13]
90 to 100%: pest or weed control at 400 ppm [1] | pest or weed control at 400 ppm [5] | pest or weed control at 400 ppm [7]

Fc1cccc2c(OCCc3cccc(C(F)(F)F)c3)ccnc12 [Example 203, 8-fluoro-4-[2-(3-(trifluoromethyl)phenyl)ethoxy]quinoline]
0%: mortality at 200 ppm [2] | mortality at 400 ppm [2] | mortality at 12 ppm (corn rootworm) | mortality at 24 ppm (corn rootworm) | mortality at 400 ppm [4]
90%: mortality at 400 ppm [10]
100%: mortality at 200 ppm [10]
0 to 19%: pest or weed control at 400 ppm [9]
10%: mortality at 200 ppm [4]
20 to 89%: pest or weed control at 400 ppm [3] | pest or weed control at 400 ppm [6] | pest or weed control at 400 ppm [7]
particularly excellent activity: activity against downy mildew [1] | activity as miticides [2] | activity against rice blast ([11]; summary statement in the description)
90 to 100%: pest or weed control at 400 ppm [1] | pest or weed control at 400 ppm [5] | pest or weed control at 400 ppm [8] | pest or weed control at 400 ppm [11]

Clc1cccc2c(OCCc3ccccc3)ccnc12 [Example 207, 8-chloro-4-(2-phenylethoxy)quinoline]
90 to 100%: pest or weed control at 400 ppm [1] | pest or weed control at 400 ppm [5] | pest or weed control at 400 ppm [7] | pest or weed control at 400 ppm [8] | pest or weed control at 400 ppm [11]
0 to 19%: pest or weed control at 400 ppm [9]
20 to 89%: pest or weed control at 400 ppm [3] | pest or weed control at 400 ppm [6]
0%: mortality at 200 ppm [2, 12] | mortality at 12 ppm (corn rootworm; [14]) | mortality at 200 ppm [4, 12] | mortality at 200 ppm [10, 12]
